ChEMBL document CHEMBL4507293 (2021)

Key:
[1] = target: Phosphatidylinositol 5-phosphate 4-kinase type-2 gamma (Homo sapiens) (UniProt Q8TBX8); conditions: Compound concentration 100.0 nM
[2] = target: Alpha-2A adrenergic receptor (Homo sapiens) (UniProt P08913); conditions: Compound concentration 10.0 uM
[3] = target: Sodium-dependent noradrenaline transporter (Homo sapiens) (UniProt P23975); conditions: Compound concentration 10.0 uM
[4] = target: Epidermal growth factor receptor (Homo sapiens) (UniProt P00533); experiment: Protein Tyrosine Kinase, EGF Receptor Eurofins-Panlabs enzyme assay; parameters: substrate with concentration 10 µg/mL Poly(Glu:Tyr), incubation time 60 min, incubation temperature 25 °C; conditions: Compound concentration 10.0 uM
[5] = target: Histamine H3 receptor (Homo sapiens) (UniProt Q9Y5N1); experiment: Histamine H3 Eurofins-Panlabs radioligand binding assay; conditions: Compound concentration 10.0 uM
[6] = target: Prostaglandin F2-alpha receptor (Homo sapiens) (UniProt P43088); experiment: Prostanoid FP Eurofins-Panlabs radioligand binding assay; parameters: ligand concentration 0.95 nM; conditions: Compound concentration 10.0 uM
[7] = target: Purinergic P2Y (Rattus norvegicus) (UniProt O35811+Q9EPX4+P49651+Q63371+P41232+O35881+Q6GUG4); conditions: Compound concentration 10.0 uM
[8] = target: Glucocorticoid receptor (Homo sapiens) (UniProt P04150); experiment: Glucocorticoid Eurofins-Panlabs radioligand binding assay; conditions: Compound concentration 10.0 uM
[9] = target: Cholecystokinin receptor type A (Homo sapiens) (UniProt P32238); experiment: Inhibition of Cholecystokinin CCK1 (CCKA) at 10 µM in the Eurofins-Panlabs radioligand binding assay (Eurofins_assay_218020); conditions: Compound concentration 10.0 uM
[10] = target: Type-1 angiotensin II receptor (Homo sapiens) (UniProt P30556); experiment: Angiotensin AT1 Eurofins-Panlabs radioligand binding assay; conditions: Compound concentration 10.0 uM
Chain of Type-1 angiotensin II receptor (Homo sapiens) (P30556 whole entry): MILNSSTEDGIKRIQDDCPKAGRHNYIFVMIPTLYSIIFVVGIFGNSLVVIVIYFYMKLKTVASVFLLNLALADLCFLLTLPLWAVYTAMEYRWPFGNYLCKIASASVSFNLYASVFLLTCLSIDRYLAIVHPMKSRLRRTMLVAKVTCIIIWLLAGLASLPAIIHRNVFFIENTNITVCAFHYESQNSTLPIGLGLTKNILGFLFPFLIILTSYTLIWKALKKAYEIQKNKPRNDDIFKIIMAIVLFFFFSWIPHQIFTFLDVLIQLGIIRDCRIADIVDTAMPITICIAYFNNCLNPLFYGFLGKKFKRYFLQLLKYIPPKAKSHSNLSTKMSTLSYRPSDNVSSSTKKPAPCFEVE

[11] = target: ATP-sensitive inward rectifier potassium channel 11 (Cricetulus griseus) (UniProt A0A3L7HHE1); experiment: Inhibition of Potassium Channel [KATP] at 10 µM in the Eurofins-Panlabs radioligand binding assay (Eurofins_assay_265600); conditions: Cricetinae; Compound concentration 10.0 uM
[12] = target: Neuropeptide Y receptor type 1 (Homo sapiens) (UniProt P25929); experiment: Inhibition of Neuropeptide Y Y1 at 10 µM in the Eurofins-Panlabs radioligand binding assay (Eurofins_assay_257010); conditions: Compound concentration 10.0 uM
[13] = target: Histamine H2 receptor (Homo sapiens) (UniProt P25021); conditions: Compound concentration 10.0 uM
Rattus norvegicus = organism: Rattus norvegicus; experiment: Inhibition of Glutamate, NMDA, Phencyclidine at 10 µM in the Eurofins-Panlabs radioligand binding assay (Eurofins_assay_233000); format: protein-complex assay; conditions: Compound concentration 10.0 uM
[14] = target: Beta-3 adrenergic receptor (Homo sapiens) (UniProt P13945); conditions: Compound concentration 10.0 uM
Chain of Beta-3 adrenergic receptor (Homo sapiens) (P13945 whole entry, looked up): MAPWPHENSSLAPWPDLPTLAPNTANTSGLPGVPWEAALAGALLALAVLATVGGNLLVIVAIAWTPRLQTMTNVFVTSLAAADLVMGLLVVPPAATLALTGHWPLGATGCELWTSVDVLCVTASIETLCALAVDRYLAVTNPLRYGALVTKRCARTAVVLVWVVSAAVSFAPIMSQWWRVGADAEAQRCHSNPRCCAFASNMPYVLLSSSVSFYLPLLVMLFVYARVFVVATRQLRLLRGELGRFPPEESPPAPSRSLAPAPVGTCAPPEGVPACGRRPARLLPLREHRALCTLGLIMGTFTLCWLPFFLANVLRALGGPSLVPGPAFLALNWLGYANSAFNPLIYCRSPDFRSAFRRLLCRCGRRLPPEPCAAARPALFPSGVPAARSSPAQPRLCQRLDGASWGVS

Caspase-9 (Homo sapiens) = Caspase-9 (Homo sapiens) (UniProt P55211); experiment: Peptidase, CASP9 (Caspase 9) Eurofins-Panlabs enzyme assay; parameters: substrate with concentration; conditions: Compound concentration 10.0 uM
Chain of Caspase-9 (Homo sapiens) (P55211 1-315 limits assumed): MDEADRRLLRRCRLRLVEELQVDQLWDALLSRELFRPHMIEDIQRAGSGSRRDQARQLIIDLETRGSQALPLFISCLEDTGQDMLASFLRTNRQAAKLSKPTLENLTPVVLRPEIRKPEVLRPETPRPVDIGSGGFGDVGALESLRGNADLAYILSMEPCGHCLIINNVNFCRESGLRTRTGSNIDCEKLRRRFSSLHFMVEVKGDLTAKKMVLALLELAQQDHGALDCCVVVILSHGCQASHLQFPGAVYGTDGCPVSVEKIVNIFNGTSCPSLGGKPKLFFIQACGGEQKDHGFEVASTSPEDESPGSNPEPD
Chain of Caspase-9 (Homo sapiens) (P55211 331-416 limits assumed): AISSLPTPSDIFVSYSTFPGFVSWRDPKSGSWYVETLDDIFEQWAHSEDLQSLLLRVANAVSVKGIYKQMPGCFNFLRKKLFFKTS

[15] = target: Melanocortin receptor 4 (Homo sapiens) (UniProt P32245); experiment: Inhibition of Melanocortin MC4 at 10 µM in the Eurofins-Panlabs radioligand binding assay (Eurofins_assay_251350); parameters: ligand concentration 0.02 nM; conditions: Compound concentration 10.0 uM
Chain of Melanocortin receptor 4 (Homo sapiens) (P32245 whole entry): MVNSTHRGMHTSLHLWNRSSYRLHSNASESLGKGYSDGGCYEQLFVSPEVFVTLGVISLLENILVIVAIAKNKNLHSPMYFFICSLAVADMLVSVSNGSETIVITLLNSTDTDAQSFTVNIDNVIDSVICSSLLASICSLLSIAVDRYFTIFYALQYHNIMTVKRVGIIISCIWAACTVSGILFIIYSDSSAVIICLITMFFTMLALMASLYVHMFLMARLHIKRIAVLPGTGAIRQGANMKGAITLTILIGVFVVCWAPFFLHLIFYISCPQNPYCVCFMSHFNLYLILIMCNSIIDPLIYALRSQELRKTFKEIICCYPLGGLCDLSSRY

[16] = target: 5-hydroxytryptamine receptor 3A (Homo sapiens) (UniProt P46098); experiment: Inhibition of Serotonin (5-Hydroxytryptamine) 5-HT3 at 10 µM in the Eurofins-Panlabs radioligand binding assay (Eurofins_assay_271910); parameters: ligand concentration 0.69 nM; conditions: Compound concentration 10.0 uM
[17] = target: Histamine H4 receptor (Homo sapiens) (UniProt Q9H3N8); experiment: Histamine H4 Eurofins-Panlabs radioligand binding assay; conditions: Compound concentration 10.0 uM
[18] = target: Monoamine oxidase A (MAO-A) (Homo sapiens, UniProt P21397); experiment: Inhibition of Monoamine Oxidase MAO-A at compound concentration of 10.0 uM in the Eurofins-Panlabs enzyme assay (Eurofins_assay_140010); parameters: substrate with concentration 50 uM Kynuramine, incubation time 60 min, incubation temperature 37 C; conditions: recombinant human MAO-A expressed in insect Hi5 cells, probe kynuramine, compound concentration 10 uM
[19] = target: Mu-type opioid receptor (Homo sapiens) (UniProt P35372); conditions: Compound concentration 10.0 uM
Chain of Mu-type opioid receptor (Homo sapiens) (P35372 whole entry): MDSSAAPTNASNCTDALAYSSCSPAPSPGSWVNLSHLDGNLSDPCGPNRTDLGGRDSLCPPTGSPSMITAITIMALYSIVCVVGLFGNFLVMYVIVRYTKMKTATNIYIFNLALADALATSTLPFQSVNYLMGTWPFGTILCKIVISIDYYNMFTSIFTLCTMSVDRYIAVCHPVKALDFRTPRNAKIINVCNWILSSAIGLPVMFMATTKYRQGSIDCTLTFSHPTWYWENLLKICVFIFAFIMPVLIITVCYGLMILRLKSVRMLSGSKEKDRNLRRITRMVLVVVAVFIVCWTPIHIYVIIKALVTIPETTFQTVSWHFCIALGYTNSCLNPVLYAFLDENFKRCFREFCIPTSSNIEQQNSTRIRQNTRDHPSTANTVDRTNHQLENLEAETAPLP

[20] = target: Alpha-1D adrenergic receptor (Homo sapiens) (UniProt P25100); conditions: Compound concentration 10.0 uM
Chain of Alpha-1D adrenergic receptor (Homo sapiens) (P25100 whole entry): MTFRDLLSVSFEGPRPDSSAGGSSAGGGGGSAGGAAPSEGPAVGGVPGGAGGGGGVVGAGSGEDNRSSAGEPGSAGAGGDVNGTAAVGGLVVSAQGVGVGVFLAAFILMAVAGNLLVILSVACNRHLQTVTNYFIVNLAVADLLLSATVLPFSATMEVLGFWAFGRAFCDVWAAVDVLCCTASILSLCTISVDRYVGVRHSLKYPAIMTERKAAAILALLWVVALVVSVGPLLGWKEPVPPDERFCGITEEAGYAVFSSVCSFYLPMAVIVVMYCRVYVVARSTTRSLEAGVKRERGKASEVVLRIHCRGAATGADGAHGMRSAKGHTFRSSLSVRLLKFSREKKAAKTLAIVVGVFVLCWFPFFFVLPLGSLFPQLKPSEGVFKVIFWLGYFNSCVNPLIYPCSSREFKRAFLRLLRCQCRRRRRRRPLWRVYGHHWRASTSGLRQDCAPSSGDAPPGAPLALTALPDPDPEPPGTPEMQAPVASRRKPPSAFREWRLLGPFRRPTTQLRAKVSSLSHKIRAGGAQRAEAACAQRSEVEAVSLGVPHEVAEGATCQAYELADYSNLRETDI

[21] = target: Cannabinoid receptor 2 (Homo sapiens) (UniProt P34972); conditions: Compound concentration 10.0 uM
Homo sapiens = organism: Homo sapiens; experiment: Cholecystokinin CCK2 (CCKB) Eurofins-Panlabs radioligand binding assay; parameters: ligand concentration 0.072 nM, non-specific ligand with concentration 1 µM Sincalide, incubation time 3 h, incubation temperature 25 °C; conditions: Compound concentration 10.0 uM
[22] = target: 5-hydroxytryptamine receptor 2B (Homo sapiens) (UniProt P41595); conditions: Compound concentration 10.0 uM
[23] = target: Gamma-aminobutyric acid type B receptor subunit 1 (Homo sapiens) (UniProt Q9UBS5); conditions: Rattus norvegicus; Compound concentration 10.0 uM
Chain of Gamma-aminobutyric acid type B receptor subunit 1 (Homo sapiens) (Q9UBS5 whole entry): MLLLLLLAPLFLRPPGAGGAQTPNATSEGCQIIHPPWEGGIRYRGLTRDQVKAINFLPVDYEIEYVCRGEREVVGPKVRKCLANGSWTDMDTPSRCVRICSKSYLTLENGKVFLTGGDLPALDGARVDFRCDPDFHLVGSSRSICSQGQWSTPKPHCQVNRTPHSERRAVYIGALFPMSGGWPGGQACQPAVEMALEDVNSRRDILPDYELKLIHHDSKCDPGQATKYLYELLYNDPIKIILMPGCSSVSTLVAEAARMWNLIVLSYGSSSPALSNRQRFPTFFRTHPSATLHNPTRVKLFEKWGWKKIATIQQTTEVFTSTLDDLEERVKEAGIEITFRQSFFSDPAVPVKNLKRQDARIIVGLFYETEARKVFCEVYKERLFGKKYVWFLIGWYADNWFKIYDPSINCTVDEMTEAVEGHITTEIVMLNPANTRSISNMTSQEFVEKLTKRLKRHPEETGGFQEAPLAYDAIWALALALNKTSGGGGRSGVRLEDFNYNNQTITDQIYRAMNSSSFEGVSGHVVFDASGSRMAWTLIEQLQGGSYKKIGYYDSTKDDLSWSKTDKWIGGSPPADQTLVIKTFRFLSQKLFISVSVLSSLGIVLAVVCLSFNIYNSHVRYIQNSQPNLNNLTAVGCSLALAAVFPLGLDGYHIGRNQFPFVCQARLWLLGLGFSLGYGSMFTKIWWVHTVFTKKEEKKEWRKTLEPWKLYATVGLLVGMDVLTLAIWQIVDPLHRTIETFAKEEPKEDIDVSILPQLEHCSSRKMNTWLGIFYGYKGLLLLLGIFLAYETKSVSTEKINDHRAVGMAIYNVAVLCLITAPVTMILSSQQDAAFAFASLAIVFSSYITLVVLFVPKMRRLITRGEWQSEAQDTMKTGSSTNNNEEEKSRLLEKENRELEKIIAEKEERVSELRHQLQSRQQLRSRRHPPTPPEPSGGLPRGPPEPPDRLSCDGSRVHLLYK

[24] = target: Alpha-1D adrenergic receptor (Homo sapiens) (UniProt P25100); experiment: Inhibition of Adrenergic alpha1D at 10 µM in the Eurofins-Panlabs radioligand binding assay (Eurofins_assay_203400); conditions: Compound concentration 10.0 uM
[25] = target: Monoamine oxidase B (MAO-B) (Homo sapiens, UniProt P27338); experiment: Inhibition of Monoamine Oxidase MAO-B at compound concentration of 10.0 uM in the Eurofins-Panlabs enzyme assay (Eurofins_assay_140120); parameters: substrate with concentration 50 uM Kynuramine, incubation time 60 min, incubation temperature 37 C; conditions: recombinant human MAO-B expressed in insect Hi5 cells, probe kynuramine, compound concentration 10 uM
[26] = target: Retinoic acid receptor RXR-alpha (Homo sapiens) (UniProt P19793); experiment: Retinoid X Receptor RXRalpha Eurofins-Panlabs radioligand binding assay; conditions: Compound concentration 10.0 uM
Chain of Retinoic acid receptor RXR-alpha (Homo sapiens) (P19793 whole entry): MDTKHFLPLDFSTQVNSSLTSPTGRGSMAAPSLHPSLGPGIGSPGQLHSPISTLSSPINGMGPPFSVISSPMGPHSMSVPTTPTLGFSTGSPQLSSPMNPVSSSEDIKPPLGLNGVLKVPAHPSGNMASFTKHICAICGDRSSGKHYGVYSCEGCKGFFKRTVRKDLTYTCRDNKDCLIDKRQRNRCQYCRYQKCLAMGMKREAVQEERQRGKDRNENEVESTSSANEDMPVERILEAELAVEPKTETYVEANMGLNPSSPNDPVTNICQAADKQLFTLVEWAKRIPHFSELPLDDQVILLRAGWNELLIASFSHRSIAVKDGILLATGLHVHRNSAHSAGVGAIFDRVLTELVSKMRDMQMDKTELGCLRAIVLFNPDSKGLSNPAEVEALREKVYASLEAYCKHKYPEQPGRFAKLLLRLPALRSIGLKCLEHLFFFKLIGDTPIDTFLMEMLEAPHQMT

[27] = target: Beta-1 adrenergic receptor (Homo sapiens) (UniProt P08588); conditions: Compound concentration 10.0 uM
[28] = target: Sodium-dependent serotonin transporter (Homo sapiens) (UniProt P31645); conditions: Compound concentration 10.0 uM
Chain of Sodium-dependent serotonin transporter (Homo sapiens) (P31645 whole entry, looked up): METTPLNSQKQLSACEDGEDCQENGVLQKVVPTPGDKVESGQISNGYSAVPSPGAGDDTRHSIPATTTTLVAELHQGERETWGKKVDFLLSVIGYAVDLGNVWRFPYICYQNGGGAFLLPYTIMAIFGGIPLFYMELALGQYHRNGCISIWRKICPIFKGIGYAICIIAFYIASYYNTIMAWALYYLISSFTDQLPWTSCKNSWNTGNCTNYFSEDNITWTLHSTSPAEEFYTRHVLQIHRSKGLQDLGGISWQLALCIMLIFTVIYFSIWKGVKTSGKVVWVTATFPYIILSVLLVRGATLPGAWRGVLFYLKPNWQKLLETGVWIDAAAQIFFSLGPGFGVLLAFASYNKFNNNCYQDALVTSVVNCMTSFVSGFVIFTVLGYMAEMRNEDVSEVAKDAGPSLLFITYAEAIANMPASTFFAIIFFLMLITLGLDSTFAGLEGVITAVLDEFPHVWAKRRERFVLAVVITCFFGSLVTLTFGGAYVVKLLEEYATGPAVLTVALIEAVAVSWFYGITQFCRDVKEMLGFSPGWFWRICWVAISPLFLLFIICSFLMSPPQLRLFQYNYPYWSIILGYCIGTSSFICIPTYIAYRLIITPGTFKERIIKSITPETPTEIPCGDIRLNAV

[29] = target: Vasopressin V1b receptor (Homo sapiens) (UniProt P47901); experiment: Inhibition of Vasopressin V1B at 10 µM in the Eurofins-Panlabs radioligand binding assay (Eurofins_assay_287560); parameters: ligand concentration 1 nM; conditions: Compound concentration 10.0 uM
[30] = target: T1, Muscarinic acetylcholine receptor M2 (Homo sapiens) (UniProt P08172); conditions: Compound concentration 10.0 uM
T1 sequence (whole entry): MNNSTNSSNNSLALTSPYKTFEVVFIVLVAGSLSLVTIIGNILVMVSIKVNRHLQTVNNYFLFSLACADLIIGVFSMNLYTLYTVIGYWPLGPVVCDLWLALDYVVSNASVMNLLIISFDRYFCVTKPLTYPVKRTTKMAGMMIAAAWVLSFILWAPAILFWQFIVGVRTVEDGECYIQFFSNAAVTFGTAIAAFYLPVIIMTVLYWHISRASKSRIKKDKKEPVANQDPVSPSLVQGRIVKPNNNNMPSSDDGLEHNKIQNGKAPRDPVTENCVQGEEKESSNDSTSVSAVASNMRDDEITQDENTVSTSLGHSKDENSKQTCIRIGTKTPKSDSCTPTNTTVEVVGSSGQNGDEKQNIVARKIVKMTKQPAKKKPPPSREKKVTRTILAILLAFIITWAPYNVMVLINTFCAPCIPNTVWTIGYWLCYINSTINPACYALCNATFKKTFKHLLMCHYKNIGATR

Chain of Phosphatidylinositol 5-phosphate 4-kinase type-2 gamma (Homo sapiens) (Q8TBX8 whole entry): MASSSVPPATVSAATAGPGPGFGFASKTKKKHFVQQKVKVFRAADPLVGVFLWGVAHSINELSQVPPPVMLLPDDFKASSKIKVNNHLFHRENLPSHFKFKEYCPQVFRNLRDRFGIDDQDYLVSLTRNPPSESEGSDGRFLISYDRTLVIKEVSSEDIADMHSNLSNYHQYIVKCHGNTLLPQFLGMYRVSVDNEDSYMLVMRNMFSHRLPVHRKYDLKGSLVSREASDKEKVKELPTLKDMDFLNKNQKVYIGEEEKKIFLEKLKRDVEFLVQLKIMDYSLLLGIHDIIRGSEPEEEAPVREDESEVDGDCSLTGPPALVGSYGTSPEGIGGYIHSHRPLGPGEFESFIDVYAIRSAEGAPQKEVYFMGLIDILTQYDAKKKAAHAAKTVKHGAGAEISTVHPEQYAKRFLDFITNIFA

CC(C)CC(=O)N1CCc2nc(-c3ccc(Br)cc3)nc(N(C)Cc3ccccc3)c2C1 [THPP-1-NC]
inactive: residual activity [1] 96% | inhibition [2] 48.4%

COCCOc1nc(-c2ccc(Cl)nc2)nc2c1CN(C(=O)c1ncn3ccccc13)CC2 [THPP-1]
32% (not active): inhibition at 60 min, 10 µM [25]
inactive: inhibition [3] -6.81% | inhibition [4] 6% | inhibition [5] -1% | inhibition [6] 22% | inhibition [7] 5% | inhibition [8] -6% | inhibition [9] 5% | inhibition [10] 3% | inhibition [11] -4% | inhibition [12] 1% | inhibition [13] 2% | inhibition (Rattus norvegicus) -10% | inhibition [14] 1% | inhibition (Caspase-9 (Homo sapiens)) -5% | inhibition [15] 8% | inhibition [16] -8% | inhibition [17] 1% | inhibition [19] 2% | inhibition [20] -4.48% | inhibition [21] 28% | inhibition (Homo sapiens) -8% | inhibition [22] -1% | inhibition [23] -5% | inhibition [24] 45% | inhibition [26] -4% | inhibition [27] -3% | inhibition [28] 2.72% | inhibition [29] 5% | inhibition [30] 5%
42% (not active): inhibition at 60 min, 10 µM [18]
